Assays:
recombinant human LTA4H = target: T1, recombinant human LTA4H (Homo sapiens, UniProt P09960); conditions: for LTA4H max. inhib.: LTA4H inhibition at the highest tested concentration (up to 100 μM), mean±S.E.M., n=3
T1 sequence (P09960 1-611): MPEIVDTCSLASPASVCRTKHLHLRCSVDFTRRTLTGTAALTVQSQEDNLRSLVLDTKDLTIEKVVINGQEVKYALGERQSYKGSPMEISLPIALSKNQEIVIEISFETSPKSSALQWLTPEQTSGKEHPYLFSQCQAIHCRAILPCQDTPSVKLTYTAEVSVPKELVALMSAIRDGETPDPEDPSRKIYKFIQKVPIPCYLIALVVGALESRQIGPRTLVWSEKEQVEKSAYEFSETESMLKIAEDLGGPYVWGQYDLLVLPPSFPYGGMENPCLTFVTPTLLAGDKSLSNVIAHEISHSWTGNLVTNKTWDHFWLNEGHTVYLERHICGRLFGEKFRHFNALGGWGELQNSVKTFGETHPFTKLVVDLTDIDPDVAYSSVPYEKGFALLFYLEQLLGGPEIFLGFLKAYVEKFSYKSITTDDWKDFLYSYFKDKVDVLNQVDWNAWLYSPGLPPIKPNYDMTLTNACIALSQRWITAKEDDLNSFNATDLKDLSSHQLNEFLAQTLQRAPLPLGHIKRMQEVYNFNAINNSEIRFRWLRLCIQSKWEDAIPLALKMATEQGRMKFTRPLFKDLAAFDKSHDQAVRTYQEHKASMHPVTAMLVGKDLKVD
Text: FXR modulation by 3–20 was characterized in a cellular (HeLa, transiently transfected) full‐length FXR reporter gene assay employing the human FXR response element from the promoter region of bile salt export protein (BSEP) to govern firefly luciferase expression as reporter gene.[26, 27] FXR and its natural heterodimer partner retinoid X receptor (RXR) were constitutively over‐expressed and a constitutively expressed renilla luciferase was present as internal control for transfection efficiency and cellular health.
LTA4H assay. […] The assay was performed in black polystyrol 96‐well plates in a final volume of 100 μL. Test compound solution in DMSO (1 μL) or DMSO alone as control were incubated with 89 μl protein mixture (containing LTA4H, buffer and Triton‐X‐100). After 30 min, 10 μl of substrate mixture (containing L‐arginin‐7‐amido‐4‐methylcumarine and DMSO in buffer) were added. […] A blank measurement containing no protein was performed and treated as 0 % conversion control. All samples were measured in triplicates and each experiment was conducted in three independent repeats.

HepG2 cells = assay: WST-1 cell viability assay; format: cell-based; conditions: up to 100 μM, 48 h
[1] = target: T2, recombinant human FXR LBD (Homo sapiens, UniProt Q96RI1); assay: Isothermal titration calorimetry on FXR LBD; conditions: ITC, 25 °C, 1:1 binding assumed
T2 construct: Recombinant FXR LBD for ITC experiments was obtained; His6-tag (TEV-cleavable) (cleaved yes); made in house; host or cells: E. coli BL21 (DE3)
T2 sequence (Q96RI1 262-486 limits assumed): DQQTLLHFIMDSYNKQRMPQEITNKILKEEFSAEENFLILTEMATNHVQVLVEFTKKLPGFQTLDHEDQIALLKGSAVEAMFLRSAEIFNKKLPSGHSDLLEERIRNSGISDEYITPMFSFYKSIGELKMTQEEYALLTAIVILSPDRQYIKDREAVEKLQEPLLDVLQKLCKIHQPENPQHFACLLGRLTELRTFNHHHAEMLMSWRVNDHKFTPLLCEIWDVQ

recombinant human sEH = target: T3, recombinant human sEH (Homo sapiens, UniProt P34913); assay: sEH activity assay with PHOME as fluorogenic substrate; format: biochemical; conditions: mean±S.E.M., n=3
T3 construct: Human sEH full length protein was purified as described by Lukin et al; made in house; host or cells: E. coli BL21 (DE3)
T3 sequence (P34913 1-555): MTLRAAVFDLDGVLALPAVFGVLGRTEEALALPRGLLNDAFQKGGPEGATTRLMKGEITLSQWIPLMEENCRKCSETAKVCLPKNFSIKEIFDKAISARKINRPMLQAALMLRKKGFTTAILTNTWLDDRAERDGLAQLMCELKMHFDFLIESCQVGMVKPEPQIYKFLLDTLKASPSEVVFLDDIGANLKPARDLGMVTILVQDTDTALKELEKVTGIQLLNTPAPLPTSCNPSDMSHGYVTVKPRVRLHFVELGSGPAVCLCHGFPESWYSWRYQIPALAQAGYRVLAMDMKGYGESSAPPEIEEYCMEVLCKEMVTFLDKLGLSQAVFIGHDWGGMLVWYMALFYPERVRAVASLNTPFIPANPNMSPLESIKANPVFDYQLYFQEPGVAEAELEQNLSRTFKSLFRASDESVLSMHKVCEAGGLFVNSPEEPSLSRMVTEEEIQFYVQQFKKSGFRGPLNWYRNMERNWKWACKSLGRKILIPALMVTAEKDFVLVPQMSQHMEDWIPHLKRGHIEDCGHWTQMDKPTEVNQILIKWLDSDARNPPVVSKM

Structure (SMILES)	IC50 (recombinant human LTA4H) [µM]	LTA4H max. inhib. (recombinant human LTA4H) [%]	cytotoxic / anti-proliferative effect in WST-1 assay (HepG2 cells)	Kd [1] [µM]	sEH inhibition (recombinant human sEH; at 100 μM) [% inhibition at 100 μM]	IC50 (recombinant human sEH; read-out: sEH inhibition IC50) [µM]
O=C(O)c1cccc(NC(=O)c2ccc(OCCCc3ccccc3)cc2)c1 [compound 8]	0.14 ± 0.01	98.8±0.1	slight anti‐proliferative activity at high concentration	~7	6±1	–
O=C(O)c1ccnc(NC(=O)c2ccc(OCCCc3ccccc3)cc2)c1 [compound 19, 2‐(4‐(3‐Phenylpropoxy)benzamido)isonicotinic acid]	0.45 ± 0.02	98.9±0.1	no cytotoxic effects	~3	–	68
